In PubChem BioAssay (NCI):
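The compound was tested at five concentrations on cells cultured in 96-well plates, with a 48-hour exposure period. Abbreviation: GI50, concentration required for 50% inhibition of growth. TGI: concentration producing complete growth inhibition.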

Key:
Assay in all cases: NCI tumour cell line growth inhibition, 48 h
[1] = system: OVCAR-3 ovarian
[2] = system: NCI/ADR-RES ovarian
[3] = system: OVCAR-5 ovarian
[4] = system: RPMI-8226 leukemia
[5] = system: HT29 colon
[6] = system: MCF7 breast
[7] = system: HCT-15 colon
[8] = system: HS 578T breast
[9] = system: SW-620 colon
[10] = system: IGROV1 ovarian

Cc1cc(C(=O)Nc2cc(Oc3ccc4nc(NC(=O)C5CC5)cn4n3)ccc2C)n(C)n1
GI50 [1]: > 10 µM
TGI [1]: > 10 µM
GI50 [2]: > 10 µM
TGI [2]: > 10 µM
GI50 [3]: > 10 µM
TGI [3]: > 10 µM
GI50 [4]: > 10 µM
TGI [4]: > 10 µM
GI50 [5]: > 10 µM
TGI [5]: > 10 µM
GI50 [6]: 6.41 µM
TGI [6]: > 10 µM
GI50 [7]: 6.49 µM
TGI [7]: > 10 µM
GI50 [8]: 7.48 µM
TGI [8]: > 10 µM
GI50 [9]: > 10 µM
TGI [9]: > 10 µM
GI50 [10]: 5.06 µM
TGI [10]: > 10 µM

Clc1ccccc1[C@@H]1C[C@@H]2Cc3cc(Br)c4ccccc4c3N1O2
GI50 [1]: 3.29 µM
TGI [1]: 11.1 µM
GI50 [2]: 2.75 µM
TGI [2]: > 100 µM
GI50 [3]: 16.9 µM
TGI [3]: > 100 µM
GI50 [4]: 4.94 µM
TGI [4]: > 100 µM
GI50 [5]: 2.38 µM
TGI [5]: 5.19 µM
GI50 [6]: 3.61 µM
TGI [6]: > 100 µM
GI50 [7]: 4.39 µM
TGI [7]: > 100 µM
GI50 [8]: 3.04 µM
TGI [8]: 8.82 µM
GI50 [9]: 3.69 µM
TGI [9]: > 100 µM
GI50 [10]: 10.4 µM
TGI [10]: > 100 µM

CC/C=C\C[C@H](O)C/C=C1/C(=O)C=C[C@@H]1C/C=C\CCCC(=O)OC(C)C
GI50 [1]: 0.483 µM
TGI [1]: 1.71 µM
GI50 [2]: 3.11 µM
TGI [2]: 17.2 µM
GI50 [3]: 3.07 µM
TGI [3]: 8.41 µM
GI50 [4]: 0.371 µM
TGI [4]: 0.939 µM
GI50 [5]: 1.65 µM
TGI [5]: 3.21 µM
GI50 [6]: 0.372 µM
TGI [6]: 2.22 µM
GI50 [7]: 0.674 µM
TGI [7]: 2.75 µM
GI50 [8]: 5.21 µM
TGI [8]: 41.2 µM
GI50 [9]: 0.572 µM
TGI [9]: 2.32 µM
GI50 [10]: 2.43 µM
TGI [10]: 7.75 µM

COc1ccc(C(C#N)=C2C=CC(=NO)C=C2)cc1
GI50 [1]: 4.31 µM
TGI [1]: 13.4 µM
GI50 [2]: 3.38 µM
TGI [2]: 13.3 µM
GI50 [3]: 19.5 µM
TGI [3]: 34.3 µM
GI50 [4]: 3.2 µM
TGI [4]: 17.9 µM
GI50 [5]: 3.59 µM
TGI [5]: 12.5 µM
GI50 [6]: 2.88 µM
TGI [6]: 13.8 µM
GI50 [7]: 11.7 µM
TGI [7]: 26.1 µM
GI50 [8]: 2.9 µM
TGI [8]: 20.3 µM
GI50 [9]: 2.09 µM
TGI [9]: 4.39 µM
GI50 [10]: 2.8 µM
TGI [10]: 8 µM

COc1cc(OC)c(/C=C/C(=O)c2ccc(Nc3ncnc4ccccc34)cc2)c(OC)c1
GI50 [1]: 0.365 µM
TGI [1]: 1.43 µM
GI50 [2]: 0.394 µM
TGI [2]: 2.55 µM
GI50 [3]: 1.88 µM
TGI [3]: 5.32 µM
GI50 [4]: 0.687 µM
GI50 [5]: 0.364 µM
TGI [5]: 1.39 µM
GI50 [6]: 0.449 µM
TGI [6]: 2.59 µM
GI50 [7]: 0.798 µM
TGI [7]: 24.8 µM
GI50 [8]: 0.725 µM
TGI [8]: 5.66 µM
GI50 [9]: 0.403 µM
TGI [9]: 2.64 µM
GI50 [10]: 1.93 µM
TGI [10]: 20.3 µM

CCC#CC[C@H](O)C/C=C1/C(=O)C=C[C@@H]1C/C=C\CCCC(=O)OC
GI50 [1]: 1.55 µM
TGI [1]: 6.11 µM
GI50 [2]: 1.16 µM
TGI [2]: 3.4 µM
GI50 [3]: 1.81 µM
TGI [3]: 7.88 µM
GI50 [4]: 0.657 µM
TGI [4]: 2.86 µM
GI50 [5]: 0.991 µM
TGI [5]: 2.46 µM
GI50 [6]: 0.297 µM
TGI [6]: 7.01 µM
GI50 [7]: 1.17 µM
TGI [7]: 5.09 µM
GI50 [8]: 4.3 µM
TGI [8]: 46.6 µM
GI50 [9]: 1.49 µM
TGI [9]: 4.83 µM
GI50 [10]: 1.93 µM
TGI [10]: 7.84 µM

O=C(O)C1CCN(Cc2oc(CO)cc(=O)c2O)C1 (centres undefined)
TGI [1]: > 100 µM
TGI [2]: > 100 µM
TGI [3]: > 100 µM
TGI [4]: > 100 µM
TGI [5]: > 100 µM
TGI [6]: > 100 µM
TGI [7]: > 100 µM
TGI [8]: > 100 µM
TGI [9]: > 100 µM
TGI [10]: > 100 µM

CCCCC[C@H]1CC=C2C(=O)C=C[C@@H]2CC=CCCCC(=O)O[C@@H](CCCCC)CC=C2C(=O)C=C[C@@H]2CC=CCCCC(=O)O[C@@H](CCCCC)CC=C2C(=O)C=C[C@@H]2CC=CCCCC(=O)O1
GI50 [1]: 0.192 µM
TGI [1]: 0.532 µM
GI50 [2]: 4.24 µM
TGI [2]: > 8.75 µM
GI50 [3]: 1.08 µM
TGI [3]: > 8.75 µM
GI50 [4]: 0.256 µM
TGI [4]: 0.821 µM
GI50 [5]: 0.313 µM
TGI [5]: 1.21 µM
GI50 [6]: 0.286 µM
TGI [6]: 2.2 µM
GI50 [7]: 0.718 µM
TGI [7]: 5.73 µM
GI50 [8]: 0.773 µM
TGI [8]: > 8.75 µM
GI50 [9]: 0.373 µM
TGI [9]: 1.51 µM
GI50 [10]: 0.279 µM
TGI [10]: 1.57 µM

CC(CN(C)C)S(=O)(=O)c1ccc(-c2cnc(N)c(C(=O)Nc3ccccc3)n2)cc1 (centres undefined)
GI50 [1]: 5.83 µM
TGI [1]: 32.9 µM
GI50 [2]: 5.2 µM
TGI [2]: > 100 µM
GI50 [3]: 11.8 µM
TGI [3]: 34.5 µM
GI50 [4]: 13.8 µM
TGI [4]: 48.9 µM
GI50 [5]: 2.68 µM
TGI [5]: 13.4 µM
GI50 [6]: 1.58 µM
TGI [6]: 38.8 µM
GI50 [7]: 2.91 µM
TGI [7]: 13.4 µM
GI50 [8]: 2.41 µM
TGI [8]: 27 µM
GI50 [9]: 3.84 µM
TGI [9]: 19.2 µM
GI50 [10]: 3.15 µM
TGI [10]: 36 µM

O=C1OCC(c2ccc(O)cc2)=C1c1cc(O)c(O)c(O)c1
GI50 [1]: 27.9 µM
TGI [1]: 82.3 µM
GI50 [2]: 25.2 µM
TGI [2]: 62.8 µM
GI50 [3]: 55.6 µM
TGI [3]: > 100 µM
GI50 [4]: 44.1 µM
TGI [4]: > 100 µM
GI50 [5]: > 100 µM
TGI [5]: > 100 µM
GI50 [6]: 77.5 µM
TGI [6]: > 100 µM
GI50 [7]: > 100 µM
TGI [7]: > 100 µM
GI50 [8]: > 100 µM
TGI [8]: > 100 µM
GI50 [9]: 68 µM
TGI [9]: > 100 µM
GI50 [10]: > 100 µM
TGI [10]: > 100 µM

Cc1cn(CCC(N)C(=O)O)c(=O)[nH]c1=O (centres undefined)
TGI [1]: > 100 µM
TGI [2]: > 100 µM
TGI [3]: > 100 µM
TGI [4]: > 100 µM
TGI [5]: > 100 µM
TGI [6]: > 100 µM
TGI [7]: > 100 µM
TGI [8]: > 100 µM
TGI [9]: > 100 µM
TGI [10]: > 100 µM

COc1cccc(-n2ncc3c(N/N=C/c4ccc(C)cc4)ncnc32)c1
GI50 [1]: > 25 µM
TGI [1]: > 25 µM
GI50 [2]: > 25 µM
TGI [2]: > 25 µM
GI50 [3]: > 25 µM
TGI [3]: > 25 µM
GI50 [4]: > 25 µM
TGI [4]: > 25 µM
GI50 [5]: 1.89 µM
TGI [5]: > 25 µM
GI50 [6]: 7.2 µM
TGI [6]: > 25 µM
GI50 [7]: > 25 µM
TGI [7]: > 25 µM
GI50 [8]: > 17.4 µM
TGI [8]: > 25 µM
GI50 [9]: > 25 µM
TGI [9]: > 25 µM
GI50 [10]: > 25 µM
TGI [10]: > 25 µM

CCCCCCCN(CCCCCCC)C(=N)c1ccnc2ccccc12
GI50 [1]: 1.45 µM
TGI [1]: 2.84 µM
GI50 [2]: 1.54 µM
TGI [2]: 2.96 µM
GI50 [3]: 1.8 µM
TGI [3]: 3.6 µM
GI50 [4]: 1.65 µM
TGI [4]: 4.21 µM
GI50 [5]: 1.24 µM
TGI [5]: 2.87 µM
GI50 [6]: 1.71 µM
TGI [6]: 3.32 µM
GI50 [7]: 1.59 µM
TGI [7]: 3.04 µM
GI50 [8]: 1.64 µM
TGI [8]: 4.36 µM
GI50 [9]: 1.28 µM
TGI [9]: 2.91 µM
GI50 [10]: 1.6 µM
TGI [10]: 3.37 µM

COC12C=C/C(=C(/C(=O)OCCSc3ccnn3C)C(=O)CCCCCCCCC3(OC)C=C/C(=C(/C(=O)OCCSc4ccnn4C)C(=O)CCCCCCCC1)O3)O2
GI50 [1]: 0.966 µM
TGI [1]: 2.77 µM
GI50 [2]: 1.64 µM
TGI [2]: > 32.5 µM
GI50 [3]: 1.73 µM
TGI [3]: > 32.5 µM
GI50 [4]: 0.895 µM
TGI [4]: 2.65 µM
GI50 [5]: 1.25 µM
TGI [5]: > 32.5 µM
GI50 [6]: 0.927 µM
TGI [6]: 15.2 µM
GI50 [7]: 1.08 µM
TGI [7]: 4.39 µM
GI50 [8]: 1.23 µM
TGI [8]: > 32.5 µM
GI50 [9]: 1.07 µM
TGI [9]: 5.38 µM
GI50 [10]: 1.46 µM
TGI [10]: > 32.5 µM

CCNc1cc2oc(=O)cc(C(F)(F)F)c2cc1C
TGI [1]: > 100 µM
TGI [2]: > 100 µM
TGI [3]: > 100 µM
TGI [4]: > 100 µM
TGI [5]: > 100 µM
TGI [6]: > 100 µM
TGI [7]: > 100 µM
TGI [8]: > 100 µM
TGI [9]: > 100 µM
TGI [10]: > 100 µM

CCn1c(-c2c(Cl)cc(O)cc2Cl)cc2c(Cl)cc(O)cc21
TGI [1]: 97 µM
TGI [2]: > 100 µM
TGI [3]: 65 µM
TGI [4]: 87.6 µM
TGI [5]: 6.82 µM
TGI [6]: 25.2 µM
TGI [7]: 12.8 µM
TGI [8]: > 100 µM
TGI [9]: 41 µM
TGI [10]: 12.9 µM

Cc1c(N)nc([C@H](CC(N)=O)NC[C@H](N)C(N)=O)nc1C(=O)N[C@H](C(=O)N[C@H](C)[C@@H](O)CC(=O)N[C@H](C(=O)NC(O[C@@H]1O[C@@H](C)[C@@H](N)[C@@H](O)[C@H]1O)C(O)c1nc(-c2nc(C(=O)NCCCCN)cs2)cs1)[C@@H](C)O)[C@@H](O[C@@H]1O[C@@H](CO)[C@@H](O)[C@H](O)[C@@H]1O[C@H]1O[C@H](CO)[C@@H](O)[C@H](OC(N)=O)[C@@H]1O)c1c[nH]cn1 (some centres undefined)
TGI [1]: > 50 µM
TGI [2]: > 50 µM
TGI [3]: > 50 µM
TGI [4]: > 50 µM
TGI [5]: > 50 µM
TGI [6]: > 50 µM
TGI [7]: > 50 µM
TGI [8]: > 50 µM
TGI [9]: > 50 µM
TGI [10]: > 50 µM

C=C1C(=O)O[C@H]2[C@H]1CC/C(Cn1cc(Cc3c[nH]c4ccccc34)nn1)=C\CC[C@@]1(C)O[C@@H]21
GI50 [1]: 1.73 µM
TGI [1]: 3.15 µM
GI50 [2]: 6.22 µM
TGI [2]: 21.9 µM
GI50 [3]: 1.8 µM
TGI [3]: 3.48 µM
GI50 [4]: 2.11 µM
TGI [4]: 5.35 µM
GI50 [5]: 1.95 µM
TGI [5]: 3.72 µM
GI50 [6]: 1.5 µM
TGI [6]: 3.34 µM
GI50 [7]: 1.59 µM
TGI [7]: 3.35 µM
GI50 [8]: 3.88 µM
TGI [8]: 18.3 µM
GI50 [9]: 1.74 µM
TGI [9]: 3.56 µM
GI50 [10]: 1.92 µM
TGI [10]: 3.84 µM
